Columns and labels:
[1] = system: HSV-1 K26-GFP infected primary human skin cells; assay: % change of HSV-1 GFP signal vs untreated infected cells; higher = less antiviral inhibition; conditions: cell type: primary dermal fibroblasts, time (h post infection): 48
Description: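 2D primary donor-derived dermal fibroblasts infected with GFP-HSV-1 K26 at MOI 1, treated 1 h later with compound dilutions and read at 48 hpi on IncuCyte. GFP integrated intensity is normalised to mock-infected and untreated infected wells (% change; -100 = full inhibition).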

[2] = system: HSV-1 K26-GFP infected primary human skin cells; assay: as above
Description: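 2D primary donor-derived keratinocytes (read at 20 hpi) and donor-matched dermal fibroblasts (read at 48 hpi) infected with GFP-HSV-1 K26 at MOI 1 and treated 1 h later with compound dilutions. IncuCyte GFP integrated intensity is normalised by subtracting mock-infected wells and dividing by untreated infected wells, shown as % change (-100 = full inhibition).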

Nc1nc2c(ncn2COCCO)c(=O)[nH]1 [Acyclovir]
% change of HSV-1 GFP signal [%], [1]
Conditions	0.01 µM	0.03 µM	0.091 µM	0.274 µM	0.823 µM	2.469 µM	7.407 µM	22.222 µM	66.667 µM	200 µM
donor: 3	11.2	-4.39	-24.2	-53.8	-81.8	-96	-98.87	-99.69	-99.875	-99.88
donor: 4	-5.12	-10.6	-29.8	-54.4	-78.2	-94	-98.8	-99.862	-99.93	-99.998

% change of HSV-1 GFP signal [%], [2]
Conditions	0.01 µM	0.03 µM	0.091 µM	0.274 µM	0.823 µM	2.469 µM	7.407 µM	22.222 µM	66.667 µM	200 µM
cell type: primary dermal fibroblasts, donor: 5, time (h post infection): 48	8.25	5.48	-8.89	-35.4	-64.4	-91.6	-98.36	-99.642	-99.73	-99.952
cell type: primary keratinocytes, donor: 3, time (h post infection): 20	4.06	2.08	5.2	11.3	10.1	10.8	5.3	-13.4	-42.3	-69.1
cell type: primary keratinocytes, donor: 4, time (h post infection): 20	3.4	-0.143	2.05	3.28	-0.371	-2.35	-4.48	-27.5	-53.6	-80.5
cell type: primary keratinocytes, donor: 5, time (h post infection): 20	3.43	1.77	4.64	3.64	4.14	5.76	-4.49	-17.7	-45.6	-75.1
